Data: US11912723B2, “KRAS modulators and uses thereof” (Quanta Therapeutics, Inc., priority 2022, dated 2024)

How the values were obtained:
KRAS G12D/RAF1 = target: T1, KRAS G12D/RAF1 (Homo sapiens, UniProt P01116, G12D); experiment: Protein-protein interaction (PPI) HTRF assay KRAS G12D/RAF1; assay type: binding; details: KRAS G12D/RAF1, GppNHp-loaded KRAS; 30 minutes pre-incubation
T1 construct: KRAS (1-169) proteins were expressed in E. coli at 18° C; His6-MBP (N, cleaved yes); made in house; host or cells: E. coli
T1 sequence (P01116 1-169 isoform P01116-2 G12D): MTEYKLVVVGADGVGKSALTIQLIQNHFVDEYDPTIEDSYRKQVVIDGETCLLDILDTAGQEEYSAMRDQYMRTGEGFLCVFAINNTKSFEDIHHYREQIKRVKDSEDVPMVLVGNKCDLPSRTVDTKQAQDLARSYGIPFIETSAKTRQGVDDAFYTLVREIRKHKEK
Method: Biotinylated KRAS wt and KRAS G12DNV proteins were expressed and purified in conditions similar to those previously reported (Tran, et al., 2021) (Zhang, et al., 2020). Briefly, KRAS (1-169) proteins were expressed in E. coli at 18° C. with an upstream TEV cleavage site (ENLFYQS) followed an Avi tag sequence ([…]). KIRAS expression constructs contained both a His6 and maltose-binding protein (MBP) tags at the N-terminus for Ni-NTA column purification prior to overnight TEV cleavage and MBP column purification. The avi-tagged NRAS expression construct contained both a His6 tag and SUMO cleavage sige at the N-terminus for Ni-NTA column purification followed by His-ULP1 digestion overnight. All avi-tagged RAS proteins were dialyzed into buffer containing ATP, biotin, and BirA followed by purification over a second Ni-NTA column and then run over a size exclusion HiLoad™ 26/600 Superdex™ column in 20 mM HEPES, pH 7.5, 300 mM NaCl, 5 mM MgCl2, and 1 mM TCEP. Fractions containing the protein of interest were pooled, concentrated, and confirmed by intact mass spectrometry. To prepare ‘GTP’ loaded KRAS and NRAS, biotinylated KRAS or NRAS was nucleotide exchanged from GDP-bound protein to GppNHp-bound (Jena Biosciences, NU-401-50) protein in the presence of alkaline phosphatase and excess GppNHp as previously described and the resulting nucleotide content was confirmed by HPLC reverse phase analytical chromatography (Donohue, et al., 2019) (Tran, et al., 2021).
His-tagged RAF1 (52-131) was similarly expressed in E. coli at 18° C. overnight with an upstream TEV cleavage site. His-tagged RAF1 expression construct contained both a His6 and MBP tags at the N-terminus for Ni-NTA column purification followed by MBP-tagged TEV digestion overnight. RAF1 protein samples were further purified over a MBP column followed by a Ni-NTA column and a second MBP column. The fractions containing the protein of interest were pooled, concentrated, and further purified over a HiLoad™ 16/600 Superdex™ 75 pg size exclusion column into 20 mM HEPES, pH8.0, 200 mM NaCl, 5 mM TCEP.
When RAS proteins are in the active GTP-bound conformation, they bind the effector protein RAF1 at the N-terminus Ras-binding domain (RBD, residues 52-131) (Tran, et al., 2021). Homogenous time resolved fluorescence (HTRF) was used to monitor the interaction between wt or mutant KRAS and RAF1 or wt NRAS and RAFT. Compounds were assayed in the presence of KRAS G12D/V and RAF1 versus wt KRAS to assess activity against mutant and w.t. KRAS. Similarly, compounds were then assayed in the presence of w.t. NRAS and RAF1 to assess RAS isoform selectivity. In all assay formats, His-tagged RAF1 protein was incubated with the HTRF donor, anti-6His Tb Cryptate gold (Cisbio 61DB10RDF), and biotinylated RAS proteins were incubated with the HTRF acceptor, streptavidin-d2 (CisBio 610SADLA). The intensity of the fluorescence signal emitted is proportional to binding between the two proteins. The donor solution was prepared by mixing 16 nM His-tagged RAF1 in protein dilution buffer with 1:100 anti-6His Tb cryptate in PPI-Terbium detection buffer. 16 nM biotinylated RAS protein was diluted into protein dilution buffer (50 mM Tris-HCl pH 7.5, 150 mM NaCl, 0.1 mM MgCl2, 1 mM TCEP, 0.005% Tween20) and mixed with 1:2000 Streptavidin-d2 diluted in PPI-Terbium detection buffer (CisBio 61DB10RDF). 50× compound in DMSO was mixed with 16 nM KRAS-acceptor solution and incubated for 30 minutes at room temperature. After compound pre-incubation with KRAS, the RAF1 donor solution was added to the KRAS-acceptor solution and incubated for 1 hour at room temperature. The fluorescence signal emitted was monitored at 665 nm and 615 nm using an Envision multimode plate reader. The HTRF ratio (665/615) was calculated and normalized to 0% inhibition in the absence of compound and 100% inhibition in the presence of untagged RAF1 protein. […]

[1] = target: T2, GST-tagged KRAS G12D (2-169) (Homo sapiens, UniProt P01116, G12D); experiment: Nucleotide exchange assay (NEA), HTRF of SOS-mediated GTP-DY-647P1 binding; assay type: biochemical; details: 5 nM GST-KRAS G12D, 20 nM SOScat, 150 nM GTP; compound 1 h at RT
T2 construct: GST-tagged KRAS^G12D (2-169, Reaction Biology, MSC-11-539); purchased Reaction Biology MSC-11-539 (KRAS G12D); MSC-11-502 (SOS1cat)
T2 sequence (P01116 2-169 isoform P01116-2 G12D): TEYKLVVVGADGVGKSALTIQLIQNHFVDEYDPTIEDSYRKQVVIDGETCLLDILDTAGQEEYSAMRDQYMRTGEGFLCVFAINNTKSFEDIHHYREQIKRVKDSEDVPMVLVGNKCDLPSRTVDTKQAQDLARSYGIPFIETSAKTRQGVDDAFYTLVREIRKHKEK
Method in brief: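 After 1 h RT preincubation of compound with KRAS, SOS1cat (20 nM final) and fluorescent GTP analog (150 nM) were added to 5 nM KRAS; HTRF (anti-GST Tb donor) followed at RT for up to 90 min. % inhibition relative to DMSO and no-SOS1 blank, 4-parameter curve fit.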

## Cc1noc(-c2cc3n(n2)CCCN(c2nc(OC[C@@]45CCCN4C[C@H](F)C5)nc4c2CN(C)[C@@]2(CCc5cccc(F)c52)C4)C3)n1 [Compound 73, 5-[5-[(7S)-7′-fluoro-2-[[(2R,8S)-2-fluoro-1,2,3,5,6,7-hexahydropyrrolizin-8-yl]methoxy]-6-methyl-spiro[5,8-dihydropyrido[4,3-d]pyrimidine-7,1′-indane]-4-yl]-4,6,7,8-tetrahydropyrazolo[1,5-a][1,4]diazepin-2-yl]-3-methyl-1,2,4-oxadiazole]
KRAS G12D/RAF1
  IC50: > 100000 nM
[1]
  IC50: 10 to 100 nM

## Cc1noc(-c2cc3n(n2)CCCN(c2nc(OC[C@@]45CCCN4C[C@H](F)C5)nc4c2CN(C)[C@@]2(CCCc5ccccc52)C4)C3)n1 [Compound 74, 5-[5-[(7S)-2-[[(2R,8S)-2-fluoro-1,2,3,5,6,7-hexahydropyrrolizin-8-yl]methoxy]-6-methyl-spiro[5,8-dihydropyrido[4,3-d]pyrimidine-7,1′-tetralin]-4-yl]-4,6,7,8-tetrahydropyrazolo[1,5-a][1,4]diazepin-2-yl]-3-methyl-1,2,4-oxadiazole]
KRAS G12D/RAF1
  IC50: > 100000 nM
[1]
  IC50: 10 to 100 nM

## CN(C)C(=O)c1nn2c(c1C#N)CN(c1nc(OC[C@@]34CCCN3C[C@H](F)C4)nc3c1CN(C)[C@@]1(CCc4cccc(F)c41)C3)CCC2 [Compound 76, 3-cyano-5-[(7S)-7′-fluoro-2-[[(2R,8S)-2-fluoro-1,2,3,5,6,7-hexahydropyrrolizin-8-yl]methoxy]-6-methyl-spiro[5,8-dihydropyrido[4,3-d]pyrimidine-7,1′-indane]-4-yl]-N,N-dimethyl-4,6,7,8-tetrahydropyrazolo[1,5-a][1,4]diazepine-2-carboxamide]
KRAS G12D/RAF1
  IC50: 10000 to 100000 nM
[1]
  IC50: < 10 nM

## CN(C)C(=O)c1nn2c(c1C#N)CN(c1nc(OC[C@@]34CCCN3C[C@H](F)C4)nc3c1CN(C)[C@@]1(CCCc4ccccc41)C3)CCC2 [Compound 77, 3-cyano-5-[(7S)-2-[[(2R,8S)-2-fluoro-1,2,3,5,6,7-hexahydropyrrolizin-8-yl]methoxy]-6-methyl-spiro[5,8-dihydropyrido[4,3-d]pyrimidine-7,1′-tetralin]-4-yl]-N,N-dimethyl-4,6,7,8-tetrahydropyrazolo[1,5-a][1,4]diazepine-2-carboxamide]
KRAS G12D/RAF1
  IC50: 10000 to 100000 nM
[1]
  IC50: < 10 nM

## CN1Cc2c(nc(OC[C@@]34CCCN3C[C@H](F)C4)nc2N2CCCn3nc(C(=O)O)c(Cl)c3C2)C[C@]12CCCc1ccccc12 [Compound 78, 3-chloro-5-[(7S)-2-[[(2R,8S)-2-fluoro-1,2,3,5,6,7-hexahydropyrrolizin-8-yl]methoxy]-6-methyl-spiro[5,8-dihydropyrido[4,3-d]pyrimidine-7,1′-tetralin]-4-yl]-4,6,7,8-tetrahydropyrazolo[1,5-a][1,4]diazepine-2-carboxylic acid]
KRAS G12D/RAF1
  IC50: 10000 to 100000 nM
[1]
  IC50: < 10 nM

## CN1Cc2c(nc(OCC3(CN4CCOCC4)CC3)nc2N2C[C@H]3CC[C@@H](C2)N3)C[C@]12CCCc1ccccc12 [Compound 80, 4-[[1-[[(7S)-6-methyl-4-[(1R,5S)-3,8-diazabicyclo[3.2.1]octan-3-yl]spiro[5,8-dihydropyrido[4,3-d]pyrimidine-7,1′-tetralin]-2-yl]oxymethyl]cyclopropyl]methyl]morpholine]
KRAS G12D/RAF1
  IC50: 10000 to 100000 nM
[1]
  IC50: 10 to 100 nM

## CN1Cc2c(nc(OC[C@@]34CCCN3C[C@H](F)C4)nc2N2CCCn3nc(-c4nc5ccccc5n4C)cc3C2)C[C@]12CCCc1ccccc12 [Compound 82, (7S)-2-[[(2R,8S)-2-fluoro-1,2,3,5,6,7-hexahydropyrrolizin-8-yl]methoxy]-6-methyl-4-[2-(1-methylbenzimidazol-2-yl)-4,6,7,8-tetrahydropyrazolo[1,5-a][1,4]diazepin-5-yl]spiro[5,8-dihydropyrido[4,3-d]pyrimidine-7,1′-tetralin]]
KRAS G12D/RAF1
  IC50: > 100000 nM
[1]
  IC50: 10 to 100 nM

## CN1Cc2c(nc(OC[C@@]34CCCN3C[C@H](F)C4)nc2N2CCCn3nc(-c4nc5c(F)cccc5n4C)cc3C2)C[C@]12CCCc1ccccc12 [Compound 83, (7S)-2-[[(2R,8S)-2-fluoro-1,2,3,5,6,7-hexahydropyrrolizin-8-yl]methoxy]-4-[2-(4-fluoro-1-methyl-benzimidazol-2-yl)-4,6,7,8-tetrahydropyrazolo[1,5-a][1,4]diazepin-5-yl]-6-methyl-spiro[5,8-dihydropyrido[4,3-d]pyrimidine-7,1′-tetralin]]
KRAS G12D/RAF1
  IC50: > 100000 nM
[1]
  IC50: 10 to 100 nM

## CN1Cc2c(nc(OC[C@@]34CCCN3C[C@H](F)C4)nc2N2C[C@H]3CC[C@@H](C2)[C@@H]3N)C[C@]12CCCc1ccccc12 [Compound 85, (1R,5S)-3-[(7S)-2-[[(2R,8S)-2-fluoro-1,2,3,5,6,7-hexahydropyrrolizin-8-yl]methoxy]-6-methyl-spiro[5,8-dihydropyrido[4,3-d]pyrimidine-7,1′-tetralin]-4-yl]-3-azabicyclo[3.2.1]octan-8-amine]
KRAS G12D/RAF1
  IC50: > 100000 nM
[1]
  IC50: 1000 to 20000 nM

## CN1Cc2c(nc(OCC34CCCN3CC(F)C4)nc2N2CC3CCC(C2)C3NC#N)CC12CCCc1ccccc12 [Compound 86, [(1R,5S)-3-[(7S)-2-[[(2R,8S)-2-fluoro-1,2,3,5,6,7-hexahydropyrrolizin-8-yl]methoxy]-6-methyl-spiro[5,8-dihydropyrido[4,3-d]pyrimidine-7,1′-tetralin]-4-yl]-3-azabicyclo[3.2.1]octan-8-yl]cyanamide]
KRAS G12D/RAF1
  IC50: > 100000 nM
[1]
  IC50: < 10 nM

## CN1Cc2c(nc(OC[C@@]34CCCN3C[C@H](F)C4)nc2N2CCCn3nc(-c4ccccn4)cc3C2)C[C@]12CCCc1ccccc12 [Compound 88, (7S)-2-[[(2R,8S)-2-fluoro-1,2,3,5,6,7-hexahydropyrrolizin-8-yl]methoxy]-6-methyl-4-[2-(2-pyridyl)-4,6,7,8-tetrahydropyrazolo[1,5-a][1,4]diazepin-5-yl]spiro[5,8-dihydropyrido[4,3-d]pyrimidine-7,1′-tetralin]]
KRAS G12D/RAF1
  IC50: > 100000 nM
[1]
  IC50: 10 to 100 nM

## COc1cccc(-c2cc3n(n2)CCCN(c2nc(OC[C@@]45CCCN4C[C@H](F)C5)nc4c2CN(C)[C@@]2(CCCc5ccccc52)C4)C3)n1 [Compound 89, (7S)-2-[[(2R,8S)-2-fluoro-1,2,3,5,6,7-hexahydropyrrolizin-8-yl]methoxy]-4-[2-(6-methoxy-2-pyridyl)-4,6,7,8-tetrahydropyrazolo[1,5-a][1,4]diazepin-5-yl]-6-methyl-spiro[5,8-dihydropyrido[4,3-d]pyrimidine-7,1′-tetralin]]
KRAS G12D/RAF1
  IC50: > 100000 nM
[1]
  IC50: 100 to 1000 nM
